This passage reports T/C results from PubChem BioAssay AID192 (DTP/NCI, 2004).

The test concerns BDF1 mice, B16 melanoma ip, median survival T/C. The test can be described thus: NCI In Vivo Anticancer Drug Screen. Data for tumor model B16 Melanoma (intraperitoneal) in B6D2F1 (BDF1) mice. The settings on record: endpoint: median survival time, higher = longer survival. An outline of the steps: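 Tumor-bearing mice received test compound or vehicle. Survival or tumor size was then measured in both groups. The treated-group figure was divided by the control-group figure.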

[1] abbreviates: dose: 6.25 mg/kg/injection, schedule: Q01DX009 (ip), vehicle: saline.
Where [2] appears, read: dose: 12.5 mg/kg/injection, schedule: Q01DX009 (ip), vehicle: saline.
Where [3] appears, read: dose: 25.0 mg/kg/injection, schedule: Q01DX009 (ip), vehicle: saline.
Where [4] appears, read: dose: 50.0 mg/kg/injection, schedule: Q01DX009 (ip), vehicle: saline.
The mark [5] stands for this setting: dose: 100.0 mg/kg/injection, schedule: Q01DX009 (ip), vehicle: saline.
Where [6] appears, read: dose: 12.5 mg/kg/injection, schedule: Q01DX009 (ip), vehicle: saline with Tween-80.
Setting [7] is: dose: 25.0 mg/kg/injection, schedule: Q01DX009 (ip), vehicle: saline with Tween-80.
The mark [8] stands for this setting: dose: 50.0 mg/kg/injection, schedule: Q01DX009 (ip), vehicle: saline with Tween-80.
Where [9] appears, read: dose: 25.0 mg/kg/injection, schedule: Q04DX003 (ip), vehicle: Klucel (hydroxypropylcellulose) (HPC).
Where [10] appears, read: dose: 50.0 mg/kg/injection, schedule: Q04DX003 (ip), vehicle: Klucel (hydroxypropylcellulose) (HPC).
The mark [11] stands for this setting: dose: 100.0 mg/kg/injection, schedule: Q04DX003 (ip), vehicle: Klucel (hydroxypropylcellulose) (HPC).
Where [12] appears, read: dose: 400.0 mg/kg/injection, schedule: Q04DX003 (ip), vehicle: Klucel (hydroxypropylcellulose) (HPC).
[13] abbreviates: dose: 100.0 mg/kg/injection, schedule: Q01DX009 (ip), vehicle: saline with Tween-80.
[14] abbreviates: dose: 200.0 mg/kg/injection, schedule: Q01DX009 (ip), vehicle: saline with Tween-80.
Where [15] appears, read: dose: 400.0 mg/kg/injection, schedule: Q01DX009 (ip), vehicle: saline with Tween-80.
[16] abbreviates: dose: 50.0 mg/kg/injection, schedule: Q01DX009 (ip), vehicle: Klucel (hydroxypropylcellulose) (HPC).
Setting [17] is: dose: 100.0 mg/kg/injection, schedule: Q01DX009 (ip), vehicle: Klucel (hydroxypropylcellulose) (HPC).
The mark [18] stands for this setting: dose: 200.0 mg/kg/injection, schedule: Q01DX009 (ip), vehicle: Klucel (hydroxypropylcellulose) (HPC).

Structures are written as SMILES. Where “and” joins values, the source holds several entries; their conditions need not be identical. Equal entries are not always repeated. Toxic doses and inconclusive results are not listed.

With `Cc1cc(SCC(=O)c2ccc(Br)cc2)cc(C)[o+]1`, the T/C is 111 % of control and 122 % of control under setting [1]; 112 % of control and 119 % of control under setting [2]; 98 % of control and 118 % of control under setting [3]; 106 % of control under setting [4]; 95 % of control under setting [5].
Consider `Cc1cccc(C)c1C1=NCCN1`, for which the T/C runs as follows: under setting [6], 95 % of control; under setting [7], 95 % of control; under setting [8], 93 % of control.
On to `C=CCOCC(O)CN(C)c1ccccc1` (stereo not drawn), for which the T/C is 92 % of control under setting [9]; 95 % of control under setting [10]; 89 % of control and 90 % of control under setting [11]; 88 % of control under setting [12].
As to `CCCCCCCCCCCC[N+](C)(C)Cc1ccccc1`, the T/C is, setting by setting: (dose: 0.25 mg/kg/injection, schedule: Q01DX009 (ip), vehicle: saline) 100 % of control and 110 % of control; (dose: 0.25 mg/kg/injection, schedule: Q04DX003 (ip), vehicle: saline) 103 % of control; (dose: 0.5 mg/kg/injection, schedule: Q01DX009 (ip), vehicle: saline) 97 % of control and 105 % of control and 107 % of control; (dose: 0.5 mg/kg/injection, schedule: Q04DX003 (ip), vehicle: saline) 95 % of control and 100 % of control; (dose: 1.0 mg/kg/injection, schedule: Q01DX009 (ip), vehicle: saline) 92 % of control and 104 % of control; (dose: 1.0 mg/kg/injection, schedule: Q04DX003 (ip), vehicle: saline) 96 % of control. The T/C runs as follows: (dose: 2.0 mg/kg/injection, schedule: Q01DX009 (ip), vehicle: saline with Tween-80) 150 % of control; (dose: 2.0 mg/kg/injection, schedule: Q01DX009 (ip), vehicle: saline) 88 % of control and 106 % of control; (dose: 2.0 mg/kg/injection, schedule: Q04DX003 (ip), vehicle: saline with Tween-80) 158 % of control; (dose: 2.0 mg/kg/injection, schedule: Q04DX003 (ip), vehicle: saline) 88 % of control; (dose: 4.0 mg/kg/injection, schedule: Q01DX009 (ip), vehicle: saline) 94 % of control and 100 % of control; (dose: 4.0 mg/kg/injection, schedule: Q04DX003 (ip), vehicle: saline with Tween-80) 177 % of control. Also, for the setting “dose: 4.0 mg/kg/injection, schedule: Q04DX003 (ip), vehicle: saline”, the T/C was 93 % of control.
`CC(C)=CCN1CCC2(C)c3cc(O)ccc3CC1C2C` (stereo not drawn): the T/C runs as follows: (dose: 0.39 mg/kg/injection, schedule: Q01DX009 (ip), vehicle: Klucel (hydroxypropylcellulose) (HPC)) 123 % of control; (dose: 0.78 mg/kg/injection, schedule: Q01DX009 (ip), vehicle: Klucel (hydroxypropylcellulose) (HPC)) 102 % of control; (dose: 1.56 mg/kg/injection, schedule: Q01DX009 (ip), vehicle: Klucel (hydroxypropylcellulose) (HPC)) 123 % of control; (dose: 6.25 mg/kg/injection, schedule: Q01DX009 (ip), vehicle: Klucel (hydroxypropylcellulose) (HPC)) 105 % of control.
In the case of `CN=C1CN(O)C(c2ccccc2)=c2cc(Cl)ccc2=N1`, the T/C reads like this: (dose: 3.12 mg/kg/injection, schedule: Q01DX009 (ip), vehicle: saline) 115 % of control; under setting [1], 101 % of control and 114 % of control; under setting [2], 92 % of control and 94 % of control and 101 % of control; under setting [3], 100 % of control and 101 % of control; under setting [4], 114 % of control and 117 % of control; under setting [5], 100 % of control and 102 % of control.
With `CC(C)CC(NC(=O)CNC(=O)/C=C/c1ccco1)C(N)=O` (stereo not drawn), the T/C is 105 % of control (dose: 6.25 mg/kg/injection, schedule: Q01DX009 (ip), vehicle: saline with Tween-80); 106 % of control under setting [1]; 105 % of control under setting [6]; 100 % of control under setting [2]; 110 % of control under setting [7]; 95 % of control under setting [3]. In addition, the T/C under setting [8] is 100 % of control and 105 % of control; the T/C under setting [4] is 97 % of control; the T/C under setting [13] is 92 % of control; the T/C under setting [14] is 98 % of control.
In the case of `CC(O)C(O)C(O)C(/C=N\N=C(/N)[S-])=N/N=C(\N)[S-].[Pt+2]` (stereo not drawn), the T/C was 95 % of control under setting [13], 102 % of control under setting [14] and 105 % of control under setting [15].
Take `O=C1CCC(N2C(=O)c3ccccc3C2=O)C(=O)N1` (stereo not drawn): the T/C (dose: 25.0 mg/kg/injection, schedule: Q01DX009 (ip), vehicle: Klucel (hydroxypropylcellulose) (HPC)) is 100 % of control; the T/C under setting [9] was 99 % of control; the T/C under setting [16] is 102 % of control; the T/C under setting [10] is 106 % of control; the T/C under setting [17] is 94 % of control; the T/C under setting [11] was 94 % of control. In addition, the T/C by setting is: under setting [18], 100 % of control; (dose: 200.0 mg/kg/injection, schedule: Q04DX003 (ip), vehicle: Klucel (hydroxypropylcellulose) (HPC)) 99 % of control; (dose: 400.0 mg/kg/injection, schedule: Q01DX009 (ip), vehicle: Klucel (hydroxypropylcellulose) (HPC)) 102 % of control; under setting [12], 94 % of control.
On to `CCCC(=O)O`, for which the T/C under setting [2] is 106 % of control, the T/C under setting [3] is 101 % of control, the T/C under setting [4] is 92 % of control and the T/C under setting [5] was 106 % of control.
Take `O=S1(=O)C=Cc2ccccc21`: the T/C is 90 % of control under setting [16], 88 % of control under setting [17] and 88 % of control under setting [18].
With `O=C1c2ccccc2C(=O)c2c(NCCN3CCCCC3)ccc(NCCN3CCCCC3)c21`, the T/C (dose: 16.0 mg/kg/injection, schedule: Q01DX009 (ip), vehicle: acid diluted with saline) is 107 % of control.
For `COC(=O)C(Br)C(Br)c1ccccc1` (stereo not drawn), the T/C is, setting by setting: under setting [13], 90 % of control; under setting [14], 90 % of control; under setting [15], 90 % of control.
In the case of `CCOC(=O)NC1CCC1NC(=O)OCC` (stereo not drawn), the T/C (dose: 100.0 mg/kg/injection, schedule: Q04DX003 (ip), vehicle: saline with Tween-80) was 92 % of control and the T/C (dose: 200.0 mg/kg/injection, schedule: Q04DX003 (ip), vehicle: saline with Tween-80) was 95 % of control.
Consider `CN1CCC=C(C(=O)N2c3ccccc3Sc3ccc(Cl)cc32)C1`, for which the T/C was 96 % of control under setting [1] and 89 % of control under setting [2].
`CN(C)CCN1c2ccccc2Sc2ccccc21`: the T/C by setting is: under setting [1], 110 % of control; under setting [2], 97 % of control; under setting [3], 92 % of control; under setting [4], 97 % of control; under setting [5], 92 % of control.
For the compound `CC1CC(C)OS(=O)O1` (stereo not drawn), the T/C was 108 % of control (dose: 12.5 mg/kg/injection, schedule: Q01DX009 (ip), vehicle: saline sonified); 100 % of control (dose: 25.0 mg/kg/injection, schedule: Q01DX009 (ip), vehicle: saline sonified); 100 % of control (dose: 50.0 mg/kg/injection, schedule: Q01DX009 (ip), vehicle: saline sonified).
As to `O=C1CCCN1`, the T/C runs as follows: under setting [5], 100 % of control; (dose: 400.0 mg/kg/injection, schedule: Q01DX009 (ip), vehicle: saline) 94 % of control.
